Reference: patent publication US20100075918A1, “HYALURONIDASE INHIBITORS AS ANTI-CANCER AGENTS” (priority 2006, published 2010)

Tests used:
HYAL1-type HAase = target: T1, HYAL1-type HAase (Homo sapiens, UniProt Q12794); assay: HAase ELISA-like assay, inhibition of HYAL1 activity; type: biochemical
T1 construct: HYAL1 cDNA encoding the full-length protein inserted into an expression vector; made in house
T1 sequence (Q12794 22-435): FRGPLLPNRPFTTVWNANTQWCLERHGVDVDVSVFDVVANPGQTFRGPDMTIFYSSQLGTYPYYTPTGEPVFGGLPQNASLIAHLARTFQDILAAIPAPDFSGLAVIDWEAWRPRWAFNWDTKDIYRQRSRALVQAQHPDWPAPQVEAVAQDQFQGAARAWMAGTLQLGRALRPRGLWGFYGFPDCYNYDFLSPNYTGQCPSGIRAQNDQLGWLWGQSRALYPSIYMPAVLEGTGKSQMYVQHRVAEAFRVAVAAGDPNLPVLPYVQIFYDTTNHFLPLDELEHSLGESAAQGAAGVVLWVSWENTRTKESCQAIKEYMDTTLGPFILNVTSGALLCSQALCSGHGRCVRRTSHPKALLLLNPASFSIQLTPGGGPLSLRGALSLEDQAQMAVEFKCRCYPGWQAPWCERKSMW
Protocol: Briefly, a stable HYAL1-expressing clone having about 40 mU/mL activity was expanded in T75 cm^2 flasks.
A microtiter well plate coated with human umbilical cord HA (MP Biomedicals; Irvine, Calif.) was incubated with about 40 mU/mL of HYAL1-type HAase in the presence or absence of various HAase inhibitors in assay buffer. For the HYAL1-type activity assay, 0.1 M sodium formate, 0.15 M NaCl, and 0.02% bovine serum albumin buffer (pH 4.2) was used as the assay buffer.
The effect of HAase inhibitors on the activity of HYAL1-type HAase was tested at 0, 1, 2, 4, 6, 8, 10, 20, 40, 60, 80 and 100 μg/mL concentrations of each inhibitor. […] Each plate was developed for 3 min and the reaction was terminated by adding 3 N HCl. HAase activity (mU/mL) was calculated from a standard graph prepared by plotting known amounts of Streptomyces HAase (10^−4 U/mL) versus (Control (no enzyme) OD405 nm-Sample OD405 nm). […] The data presented are mean ±SEM from duplicate measurements in two independent experiments.

[1] = test system: HYAL1, testicular, honeybee, and Streptomyces hyaluronidases (HAases); settings: Isoyama et al. (2006); 21 potential inhibitors; cited from earlier work
HYAL1 = target: T2, HYAL1 (Homo sapiens, UniProt Q12794); settings: Isoyama et al. (2006); cited from earlier work
T2 sequence (Q12794 22-435): T1 sequence (Q12794 22-435)

[2] = about 40 mU/mL HYAL1-type HAase, pH 4.2, 37° C. for 16 hours, N.D. = no inhibition detected

In the case of `CCCCCCCCCCCCCCS(=O)(=O)O` [1-Tetradecane sulfonic acid, 1-tetradecane sulfonic acid], the IC50 (HYAL1-type HAase; about 40 mU/mL HYAL1-type HAase, pH 4.2, 37° C. for 16 hours, N.D. = no inhibition detected, read-out: IC50 (μg/mL), inhibition of HYAL1 activity (converted)) is given as 67.9 µM and the “Effectiveness as HAase inhibitor” value [1] is given as “not effective HAase inhibitors”.
For `CC1(C)[C@@H](O[C@H]2O[C@H](C(=O)O)[C@@H](O)[C@H](O)[C@H]2O[C@@H]2O[C@H](C(=O)O)[C@@H](O)[C@H](O)[C@H]2O)CC[C@]2(C)[C@H]3C(=O)C=C4[C@@H]5C[C@@](C)(C(=O)O)CC[C@]5(C)CC[C@@]4(C)[C@]3(C)CC[C@@H]12` [Glycerrhizic acid, glycerrhizic acid], the “IC50 (μg/mL), inhibition of HYAL1 activity” value (from here on “IC50 (μg/mL), inhibition”) (HYAL1-type HAase; [2]) is listed as 32.4 µg/mL and the “Effectiveness as HAase inhibitor” value [1] is listed as “not effective HAase inhibitors”.
For `O=C([O-])CC([S-])C(=O)[O-].[Au+].[Na+].[Na+]` (stereo not drawn) [sodium aurothiomalate], the “Effectiveness as HAase inhibitor” value [1] is given as “not effective HAase inhibitors”.
For Heparin, the “HYAL1 inhibition” value (HYAL1) is given as “potent inhibitor” and the “IC50 (μg/mL), inhibition” value (HYAL1-type HAase; [2]) is given as 15.1 µg/mL.
In the case of poly(styrene-4-sulfonate) [PSS 17,000], the “IC50 (μg/mL), inhibition” value (HYAL1-type HAase; [2]) is reported as 15.2 µg/mL.
For poly(styrene-4-sulfonate) [PSS 32,000], the “IC50 (μg/mL), inhibition” value (HYAL1-type HAase; [2]) was 13.5 µg/mL.
For poly(styrene-4-sulfonate) [PSS 49,000], the “IC50 (μg/mL), inhibition” value (HYAL1-type HAase; [2]) was 15.2 µg/mL.
In the case of poly(styrene-4-sulfonate) [PSS 77,000], the “IC50 (μg/mL), inhibition” value (HYAL1-type HAase; [2]) is reported as 14.8 µg/mL.
For poly(styrene-4-sulfonate) [PSS 150,000], the “IC50 (μg/mL), inhibition” value (HYAL1-type HAase; [2]) was 10.5 µg/mL.
For poly(styrene-4-sulfonate) [PSS 210], the “IC50 for HYAL1” value (HYAL1) is listed as “no inhibition”.
In the case of poly(styrene-4-sulfonate) [PSS 350,000], the “IC50 (μg/mL), inhibition” value (HYAL1-type HAase; [2]) is reported as 13.15 µg/mL.
In the case of poly(styrene-4-sulfonate) [PSS 990,000], the IC50 (HYAL1) is given as 0.0096 µM and the “IC50 (μg/mL), inhibition” value (HYAL1-type HAase; [2]) is given as 9.6 µg/mL.
With poly(styrene-4-sulfonate) [PSS 1400] the “IC50 to inhibit HYAL1 activity, fold higher than that for PSS 999,000 and PSS 17,000” value (HYAL1-type HAase) was 2.5 fold and the “IC50 (μg/mL), inhibition” value (HYAL1-type HAase; [2]) was 26.8 µg/mL.
For poly(styrene-4-sulfonate) [PSS 4300], the “IC50 (μg/mL), inhibition” value (HYAL1-type HAase; [2]) was 8.48 µg/mL.
In the case of poly(styrene-4-sulfonate) [PSS 6800], the “IC50 to inhibit HYAL1 activity, fold higher than that for PSS 999,000 and PSS 17,000” value (HYAL1-type HAase) is reported as 2.5 fold and the “IC50 (μg/mL), inhibition” value (HYAL1-type HAase; [2]) is reported as 22.71 µg/mL.
